Measured values as given in US10294302B2, “Therapeutic method and medicament for HTLV-1 associated myelopathy” (priority 2012, dated 2019).
Read-outs that look alike come from different tables or passages of the source.

B1: Mogamulizumab (antibody, chains of the INN, looked up, V domains shown)
VH: EVQLVESGGDLVQPGRSLRLSCAASGFIFSNYGMSWVRQAPGKGLEWVATISSASTYSYYPDSVKGRFTISRDNAKNSLYLQMNSLRVEDTALYYCGRHSDGNFAFGYWGQGTLVTVSS
VL: DVLMTQSPLSLPVTPGEPASISCRSSRNIVHINGDTYLEWYLQKPGQSPQLLIYKVSNRFSGVPDRFSGSGSGTDFTLKISRVEAEDVGVYYCFQGSLLPWTFGQGTKVEIK
notes: anti-human CCR4 humanized antibody, manufactured by Kyowa Hakko Kirin

Legend:
[1] = tested on: PBMCs derived from HAM patients; assay: Actual number of cells after cultivation of PBMCs; format: cell-based, human; conditions: 1 μg/mL; 7 days after cultivation; FIG. 1C
Protocol: In the same manner, PBMCs derived from HAM patients were cultured by addition of 1×10^−6 μg/mL-10 μg/mL of KM2760, and at 7 days after cultivation, the actual number of cells was counted (FIG. 1C).

[2] = cited from earlier work
[3] = tested on: PBMCs derived from HAM patients; assay: Spontaneous cell proliferation of PBMCs by 3H-thymidine up-take; format: cell-based, human; conditions: for cell proliferation compared to non-drug treatment: Example 3, FIGS. 3A and 3B
Text: PBMCs of HAM patients and asymptomatic HTLV-1 carriers (AC) were isolated from peripheral bloods that were collected from 9 HAM patients and 8 asymptomatic HTLV-1 carriers by Ficoll density gradient centrifugation, and frozen and stored in liquid nitrogen until assay. The isolated PBMCs were suspended in an RPMI1640 medium containing 10% fetal bovine serum (hereinafter, abbreviated to FBS), 1% penicillin and 1% streptomycin (manufactured by Wako Pure Chemical Industries, Ltd.) (hereinafter, abbreviated to RPMI medium) without proliferation stimulation, and seeded at a density of 1×10^5 cells/100 μL/well in a 96-well round bottom plate. A well added with 1 μg/mL of prednisolone (PSL) was prepared as a positive control, and wells added with 0-10 μg/mL of anti-human CCR4 chimeric antibody KM2760 were prepared as a subject antibody. Cultivation was performed under the conditions of 37° C. and 5% CO2 for 6 days.
After cultivation, 1 μCi ^3H-thymidine was added to each well, and further cultured for 16 hours. After cultivation, the cells were recovered, and specific radioactivity was measured using a liquid scintillation counter (Micro Beta) to determine cell proliferation rate (%) (FIGS. 1A, 1B). The up-take of ^3H-thymidine in the non-drug-treated well was taken as 100%, and the ratio was determined.
In the same manner as in Example 1, PBMCs isolated from the peripheral blood of HAM patient were seeded in a 96-well bottom plate. A well added with 0.1 or 1 μg/mL of prednisolone and wells added with 0.1 μg/mL prednisolone+0.01-10 μg/mL of anti-human CCR4 chimeric antibody KM2760 were prepared to perform cultivation.
For cell proliferation assay by ^3H-thymidine up-take, ^3H-thymidine was added at 6 days after cultivation in the same manner as in Example 1, and further cultured for 16 hours. Further, the amount of HTLV-1 proviral DNA was determined at 7 days after cultivation in the same manner as in Example 2.
(§1) In all assays, the proliferation rate (FIGS. 3A and 3B) or the amount of HTLV-1 proviral DNA (FIGS. 3C and 3D) was represented as a percentage, when the well treated with no drug was taken as 100%.
(§2) Inhibitory effects of anti-human CCR4 chimeric antibody KM2760 and anti-human CCR4 humanized antibody Poteligeo® (manufactured by Kyowa Hakko Kirin co., Ltd.) on spontaneous cell proliferation, the amount of HTLV-1 provirus DNA, and the cytokine production in PBMCs of HAM patients (N=11) were examined in the same manner as in Examples 1, 2, and 4.

[4] = tested on: TNF-α production in PBMCs of HAM patients; assay: TNF-α production in PBMC culture supernatant (Cytometric Bead Array); format: cell-based, human; conditions: 7 days culture; combination: 0.1 μg/mL PSL+0.01 μg/mL-10 μg/mL KM2760 versus KM2760 alone
Protocol: (§3) In order to examine the inhibitory effect of anti-human CCR4 antibody and adrenocorticosteroid drug on inflammatory cytokine production in PBMCs of HAM patients, PBMCs of HAM patients were cultured, and the concentrations of IFN-γ, TNF-α, IL-2, IL-6 and IL-10 in the culture supernatants were measured.
(§4) PBMCs of HAM patients were cultured for 7 days in the same manner as in Example 2, and the culture supernatants were recovered after cultivation. The concentrations of the cytokines were measured using kits for measuring cytokine concentrations (all manufactured by BD Biosciences), Human IFNγ Flex kit (cat. 560111), Human TNFα Flex kit (cat. 560122), Human IL-6 Flex kit (cat. 558276), Human IL-2 Flex kit (cat. 558270) and Human IL-10 Flex kit (cat. 558274) by BD™ Cytometric Bead Array (CBA) (FIGS. 4A, 4B, 5A, 5B, 6A, 6B, 7A, 7B, 8A and 8B).
as §2

[5] = tested on: IL-6 production in PBMCs of HAM patients; assay: IL-6 production in PBMC culture supernatant (Cytometric Bead Array); format: cell-based, human; conditions: 7 days culture; combination: 0.1 μg/mL PSL+0.01 μg/mL-10 μg/mL KM2760 versus KM2760 alone
Protocol: as §3, §4, §2

[6] = tested on: HTLV-1 proviral DNA in PBMCs derived from asymptomatic HTLV-1 carriers (ACs); assay: Amount of HTLV-1 proviral DNA in PBMCs by real time-PCR (asymptomatic carriers); format: cell-based; conditions: 1 μg/mL; 7 days; AC N=8, FIG. 2F
Protocol: The amount of HTLV-1 proviral DNA was quantified in accordance with the method described in Yamano et al (Blood, 2002; 99: 88-94) and Nagai et al (J. Infectious Diseases; 2001; 183: 197-205).
At 7 days after cultivation, cells were recovered from each well, and the recovered cells were suspended in a buffer containing 50 mM Tris-HCl (pH 8.0), 20 mM EDTA, 0.1 M NaCl and 1% SDS (hereinafter, referred to as lysis buffer), and then 150 μg/mL of proteinase K (manufactured by Wako Pure Chemical Industries, Ltd.) was added thereto, followed by shaking at 55° C. overnight. Then, genomic DNAs were extracted from PBMCs of HAM patients using phenol/chloroform.
(§5) Real time-polymerase chain reaction (hereinafter, abbreviated to PCR) was performed using the extracted genomic DNA as a template, and TaqMan probes for HTLV-1 pX region and human β-actin, and a primer set of each gene.
As a standard sample of HTLV-1 pX, a genomic DNA derived from HTLV-1 infected rat TARL2 cell line where 1 copy/cell of HTLV-1 pX region was integrated was used, and as a standard sample of β-actin, a genomic DNA derived from PBMC of a normal person was used to perform PCR at the same time and to obtain a standard curve. The copy numbers of pX and β-actin of each sample were calculated using the standard curve, and the amount of HTLV-1 proviral DNA was determined by the following Equation (FIGS. 2A and 2B). […]

[7] = tested on: HTLV-1 proviral DNA in PBMCs derived from HAM patients; assay: Amount of HTLV-1 proviral DNA in PBMCs by real time-PCR; format: cell-based
Protocol: Then, genomic DNAs were extracted from PBMCs of HAM patients using phenol/chloroform.
as §5
As a standard sample of HTLV-1 pX, a genomic DNA derived from HTLV-1 infected rat TARL2 cell line where 1 copy/cell of HTLV-1 pX region was integrated was used, and as a standard sample of β-actin, a genomic DNA derived from PBMC of a normal person was used to perform PCR at the same time and to obtain a standard curve. The copy numbers of pX and β-actin of each sample were calculated using the standard curve, and the amount of HTLV-1 proviral DNA was determined by the following Equation (FIGS. 2A and 2B). Amount of HTLV-1 proviral DNA: copy number of HTLV-1(pX)/100 PBMC cells=(copy number of pX)/(copy number of β-actin/2)×100
Cultivation was performed in the same manner, and the absolute amount of the HTLV-1 proviral DNA per well was determined (FIGS. 2C and 2D).
In the same manner as above, 1×10^−6 μg/mL-10 μg/mL of KM2760 were added to culture PBMCs derived from HAM patients, and at 7 days after cultivation, the amounts of HTLV-1 proviral DNA were determined (FIG. 2E).
as §1

[8] = tested on: IFN-γ production in PBMCs of HAM patients; assay: IFN-γ production in PBMC culture supernatant (Cytometric Bead Array); format: cell-based, human; conditions: 7 days culture; combination: 0.1 μg/mL PSL+0.01 μg/mL-10 μg/mL KM2760 versus KM2760 alone
Protocol: as §3, §4, §2

[9] = tested on: IL-2 production in PBMCs of HAM patients; assay: IL-2 production in PBMC culture supernatant (Cytometric Bead Array); format: cell-based, human; conditions: 7 days culture; combination: 0.1 μg/mL PSL+0.01 μg/mL-10 μg/mL KM2760 versus KM2760 alone
Protocol: as §3, §4, §2

[10] = tested on: IL-10 production in PBMCs of HAM patients; assay: IL-10 production in PBMC culture supernatant (Cytometric Bead Array); format: cell-based, human; conditions: 7 days culture; combination: 0.1 μg/mL PSL+0.01 μg/mL-10 μg/mL KM2760 versus KM2760 alone
Protocol: as §3, §4, §2

[11] = PSL 1 μg/mL, antibody up to 10 μg/mL, 7 days, compared to non-drug treatment

Molecule | number of cells compared to non-drug treatment [1] | blood concentration ([2]; oral administration of 50 mg to a clinical patient) | blood concentration ([2]; oral administration of a low dose of 5 mg to a clinical patient) | cell proliferation compared to non-drug treatment ([3]; 0.1 μg/mL) | cell proliferation compared to non-drug treatment ([3]; 1 μg/mL) [%] | inhibition at 1 µg/mL ([3]; Homo sapiens, PBMC, 1 μg/mL, 6 days + 16 h 3H-thymidine, 9 HAM patients, FIG. 1B, read-out: cell proliferation inhibition compared to non-drug treatment) [%] | inhibition of TNF-α production (in words) [4] | inhibition of IL-6 production (in words) [5] | effect on the amount of proviral DNA (in words) [6] | effect on the amount of proviral DNA (in words) ([7]; 1 μg/mL, 7 days, FIG. 2E) | absolute amount of HTLV-1 proviral DNA of each well compared to non-drug treatment ([7]; 1 μg/mL, Example 3, FIGS. 3E and 3F) | absolute amount of HTLV-1 proviral DNA per well, fraction of non-drug treatment ([7]; 1 μg/mL, FIGS. 2C and 2D) | effect on the amount of HTLV-1 proviral DNA (in words) ([7]; 0.1 or 1 μg/mL, Example 3) | effect on the amount of HTLV-1 proviral DNA (in words) [7, 11] | inhibition of IFN-γ production (in words) [8] | inhibition of IL-2 production (in words) [9] | inhibition of spontaneous cell proliferation (in words) ([3]; antibody 0-10 μg/mL, 3H-thymidine up-take) | inhibition of IL-10 production (in words) [10]
C[C@]12C=CC(=O)C=C1CC[C@@H]1[C@@H]2[C@@H](O)C[C@@]2(C)[C@H]1CC[C@]2(O)C(=O)CO [PSL, prednisolone] | approximately 50% | approximately 1 μg/mL | approximately 0.1 μg/mL | approximately 70% | ~50 | ~50 | inhibited the production of all cytokines | inhibited the production of all cytokines | almost didn't reduce the amount of proviral DNA | almost didn't reduce the amount of proviral DNA | approximately 50% | ⅓ | almost didn't reduce the amount of HTLV-1 proviral DNA | did not show the effect of reducing the amount of HTLV-1 proviral DNA | inhibited the production of all cytokines | inhibited the production of all cytokines | – | –
B1 | – | – | – | – | – | – | inhibited | inhibited | – | – | – | – | – | inhibited | inhibited | inhibited | inhibited | inhibited
